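Tested at 5 concentrations; 48 h exposure; 96-well plates; endpoints linearly interpolated, else capped at highest concentration. GI50: concentration for 50% inhibition of growth. TGI marks complete inhibition of growth.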 A value given as a limit tells only on which side of the number the result lay.

Assay in all cases: DTP human tumour cell line panel, 48 h
Experiment [1] relates to MALME-3M melanoma.
In experiment [2] the test system is IGROV1 ovarian.
Experiment [3] has as its system UO-31 renal.
For experiment [4], the system named is MOLT-4 leukemia.
Experiment [5] deals with U251 CNS.
The subject of experiment [6] is SW-620 colon.
For experiment [7], the system named is RXF 393 renal.
For experiment [8], the system named is RPMI-8226 leukemia.
In experiment [9] the test system is SN12C renal.

As for `CC(C)[C@H](O)C(=O)N[C@H]1Cc2ccc3c(c2)[C@]24C5=C(N=C(O5)[C@H](C(C)C)NC1=O)c1nc(Cl)c(o1)-c1c(Cl)[nH]c5cccc(c15)-c1cccc2c1N[C@H]4O3`, the TGI was 0.0526 µM in experiment [1]; greater than 10 µM in [2]; greater than 10 µM in experiment [3]; greater than 10 µM in [4]; greater than 10 µM in experiment [6]. The values for the GI50 in experiment [2], in experiment [5] and in experiment [6] were less than 0.001 µM, less than 0.001 µM and 0.0017 µM, respectively.
On to `O=C(Nc1cc([N+](=O)[O-])cc([N+](=O)[O-])c1)OC1C2CCC1C1OC1C2` (stereo not drawn), for which the total growth inhibition concentration (TGI) in experiment [1], in experiment [2], in [3], in experiment [4], in experiment [5] and in experiment [6] was greater than 50 µM in each case. For the same compound, the total growth inhibition concentration (TGI) in experiment [7] and in [8] was greater than 50 µM in each case.
Regarding `CC(C)(C)[Si](Nc1ccccc1)(c1ccccc1)c1ccccc1`, the TGI was found to be 41.8 µM in experiment [1]; 28.3 µM in [2]; 18.5 µM in experiment [3]; 26.2 µM in experiment [4]; 26.8 µM in [5]; 28.3 µM in experiment [9]. The values for the TGI in experiment [6], in [7] and in experiment [8] were 33.6 µM, 26.5 µM and 44.1 µM, respectively.
As to `Clc1ccc2c(NCCN3CCN(c4ccnc(N5CCCC5)n4)CC3)ccnc2c1`, the GI50 was 1.91 µM in experiment [1]; 4.48 µM in [2]; 1.82 µM in experiment [3]; 3.58 µM in experiment [4]; 3.09 µM in experiment [5]; 4.86 µM in experiment [9]. Also, the GI50 is 2.05 µM in experiment [6], 1.42 µM in experiment [7] and 2.48 µM in [8]. Moreover, the TGI is 3.74 µM in experiment [1]; 23.7 µM in experiment [2]; 4.47 µM in experiment [3]; 38.2 µM in [4]; 10.1 µM in [5]; 19.1 µM in experiment [9]. For the same compound, the TGI in experiment [6] was found to be 4.31 µM; in experiment [7] it was 3.93 µM; in experiment [8], 7.08 µM.
As to `O/N=C1/C(=C/c2ccc(Cl)cc2)CCCC1C(NO)c1ccc(Cl)cc1` (stereo not drawn), the TGI was 64.6 µM in [1]; greater than 100 µM in [2]; 63.4 µM in [3]; 37.2 µM in [4]; 50.8 µM in experiment [5]; 39.7 µM in experiment [9]. Besides, the TGI in [6] is greater than 100 µM; in experiment [7], 29.6 µM; in experiment [8], 44.4 µM.
Regarding `C#CCOc1cccc(Nc2ncnc3c2ncn3C2CCN(C(=O)CCl)C2)c1` (stereo not drawn), the GI50 in experiment [1] was 12.3 µM; in experiment [2], 16.4 µM; in [3], 15.2 µM; in experiment [5], 18.1 µM; in experiment [9], 15.4 µM; in experiment [6] it was 18.4 µM. For the same compound, the GI50 in experiment [7] is 17.1 µM; in [8], 21 µM. Also, the TGI amounted to 28.1 µM in experiment [1]; 36.7 µM in [2]; 29.6 µM in experiment [3]; 35.1 µM in experiment [5]; 35.5 µM in experiment [9]; 39.1 µM in experiment [6]. In addition, the TGI in [7] amounted to 36.6 µM; in experiment [8] it was 44.2 µM.
Take `CC(=O)Oc1cc(OC(C)=O)c2cc3c(cc2c1OC(C)=O)C(=O)C1(CCCC1)C3=O`: the TGI worked out at 33.6 µM in experiment [1]; 32.4 µM in experiment [2]; 29.8 µM in experiment [3]; 15 µM in [4]; 32.3 µM in experiment [5]; 31.6 µM in experiment [9]. Further, the values for the total growth inhibition concentration (TGI) in [6], in experiment [7] and in experiment [8] were 39.4 µM, 31.3 µM and 4.89 µM, respectively.
Take `C[n+]1ccc2[nH]c3ccccc3c2c1`: the TGI in experiment [1] is 99.4 µM; in experiment [2] it was greater than 100 µM; in experiment [3], greater than 100 µM; in experiment [4], greater than 100 µM; in experiment [5], greater than 100 µM; in experiment [9] it was greater than 100 µM. The TGI in experiment [6], in [7] and in [8] was greater than 100 µM throughout.
On to `CN(C(=O)C1CC1)C1C2CN3CCC(O2)C13` (stereo not drawn), for which the TGI in experiment [1], in [2], in experiment [3], in experiment [4], in experiment [5] and in experiment [9] was greater than 100 µM each time. For the same compound, the TGI in [6], in experiment [7] and in experiment [8] was greater than 100 µM in each case.
As to `COC(=O)NN=C1C(C)(C)C(=NNC(=O)OC)C1(C)C`, the TGI in [1], in experiment [2], in experiment [3], in [4], in [5] and in experiment [9] was greater than 100 µM throughout. Also, the total growth inhibition concentration (TGI) in experiment [6] and in [7] was greater than 100 µM in each case.
`N=C(N)Cn1cnc2ccccc21`: the TGI in [1], in experiment [2], in [3], in experiment [4], in experiment [5] and in experiment [9] was greater than 100 µM throughout. Moreover, the TGI in [6], in experiment [7] and in experiment [8] was greater than 100 µM each time.
`O/N=C1/C(=C/c2ccccc2)CCCC1C(NO)c1ccccc1` (stereo not drawn): the TGI in experiment [1] is greater than 100 µM; in [2] it was greater than 100 µM; in [3] it was greater than 100 µM; in experiment [4], 90.8 µM; in experiment [9], greater than 100 µM; in [6], greater than 100 µM. For the same compound, the TGI in [7] and in experiment [8] was greater than 100 µM in each case.
With `CCN1CCC(O)(c2ccc(Cl)c(Cl)c2)C(C(=O)c2ccc(Cl)c(Cl)c2)C1` (stereo not drawn), the TGI is 33.6 µM in experiment [1]; 41.3 µM in experiment [2]; 31.4 µM in experiment [3]; 32.4 µM in [4]; 35.9 µM in [5]; 35 µM in experiment [9]. Besides, the results for the TGI in [6] and in experiment [8] were 38.7 µM and 5.72 µM, respectively.
With `COc1ccc2nc(C3=CN(C4OC(CO)C(O)C(O)C4O)C4C=CC=CC34)sc2c1` (stereo not drawn), the GI50 in [2] was 13.5 µM; in experiment [3], 41.1 µM; in experiment [4] it was 21.9 µM; in [5] it was 28.5 µM; in experiment [9] it was 29.7 µM; in experiment [6] it was 41.9 µM. The GI50 in [7] was 34.6 µM; in experiment [8], 40.3 µM. Moreover, the total growth inhibition concentration (TGI) in experiment [2] was 34.8 µM; in experiment [3], greater than 100 µM; in experiment [4], 90.8 µM; in experiment [5], greater than 100 µM; in experiment [9], 94.1 µM; in experiment [6], greater than 100 µM. The concentration for total growth inhibition (TGI) in [7] and in [8] was greater than 100 µM in each case.
With `CCCCCCCCCCCCCCCCCCOCC1(COP(=O)([O-])OCC[N+](C)(C)C)CCCO1` (stereo not drawn), the TGI in experiment [1] was 26.2 µM; in [2], 6.63 µM; in [3], 21.9 µM; in [4], 4.84 µM; in experiment [5], 7.03 µM; in experiment [9] it was 5.81 µM. Moreover, the TGI in [7] was 1.89 µM; in experiment [8] it was 8.55 µM.
`ClC1=C(Cl)C(Cl)=C(Cl)C1=Cc1ccc(Cl)cc1Cl`: the 50% growth inhibitory concentration (GI50) in [2] is 0.404 µM; in experiment [4] it was 0.3 µM; in [5], 0.39 µM; in experiment [9], 0.254 µM; in [6] it was 0.272 µM; in experiment [7], 0.215 µM. Besides, the GI50 in experiment [8] is 0.355 µM. Also, the TGI was 3.19 µM in experiment [2]; 0.98 µM in [4]; 1.49 µM in experiment [5]; 0.743 µM in [9]; 0.717 µM in [6]; 0.477 µM in experiment [7]. The compound also registered a TGI in [8] of 1.99 µM.
In the case of `O=C(O)C1=C(Cl)c2ccccc2S1(=O)=O`, the concentration for total growth inhibition (TGI) in experiment [1], in [2], in experiment [3], in experiment [4], in experiment [9] and in [6] was greater than 100 µM each time. Besides, the TGI in experiment [7] and in [8] was greater than 100 µM throughout.
In the case of `CC(C)(C)n1cc(-c2ccnc(NCCCNS(=O)(=O)c3ccc(Cl)cc3)c2)c(-c2cccc(O)c2)n1`, the GI50 in [1] was 1.66 µM; in experiment [2] it was 1.88 µM; in experiment [3], 1.89 µM; in experiment [4], 1.91 µM; in experiment [5] it was 1.62 µM; in [9], 1.65 µM. Further, the figures for the GI50 in experiment [6] and in experiment [7] were 1.77 µM and 1.46 µM, respectively. Moreover, the TGI in [1] is 3.41 µM; in experiment [2] it was 4.39 µM; in experiment [3] it was 5.02 µM; in experiment [4] it was 5.64 µM; in experiment [5], 3.42 µM; in experiment [9], 3.1 µM. Also, the TGI in [6] was 3.56 µM; in experiment [7], 2.99 µM.
For the compound `CN(C)NC(=S)NC12CC3CC(CC(C3)C1)C2`, the TGI in [1], in experiment [2], in experiment [3], in experiment [4], in experiment [5] and in experiment [9] was greater than 100 µM throughout. For the same compound, the concentration for total growth inhibition (TGI) in experiment [6] and in experiment [7] was greater than 100 µM each time.

The record behind these values is PubChem BioAssay (NCI).
